Experimental data from US20110306570A1, “Na/K-Atpase Expression as an Indicator for the Treatment of Cancer” (UNIVERSITY OF TOLEDO, priority 2008, published 2011).
Entries after “also recorded” stand apart in the source; their conditions may differ.

Tests used:
Akt = Akt phosphorylation (pAkt) by Western blot, LLC-PK1 cells; type: cell-based, pig; details: ouabain 15 min
Na/K-ATPase α1 [1] = molecular target: T1, Na/K-ATPase α1 (Homo sapiens, UniProt P05023); test: Na/K-ATPase α1 expression, MDA-MB-435s cells; type: cell-based; design: endogenous in cells; host or cells: MDA-MB-435s; details: 5 nM ouabain, 24 h, N=3, P<0.05
From the text: A significant reduction in α1 expression was detected (82±2% of control, N=3, P<0.05). Thus, ouabain-induced changes in α1 expression are clearly correlated with its effects on cell growth.

Na/K-ATPase α1 [2] = molecular target: T2, Na/K-ATPase α1 (Sus scrofa, UniProt P05024); test: Na/K-ATPase α1 expression, caveolin-1 knock-down C2-9 cells; type: cell-based, pig; details: C2-9 caveolin-1 knockdown cells, 5 and 10 nM ouabain, 72 h
T2 construct: endogenous in cells; host or cells: LLC-PK1 (ATCC) and its caveolin-1 knock-down line C2-9

Na/K-ATPase α1 mRNA [3] = test: Na/K-ATPase α1 mRNA by RT-PCR, DU145 cells; type: cell-based, human; details: 10 nM ouabain, 24 h
Protocol: (§1) Total RNA was extracted and applied for RT-PCR to probe Na/K-ATPase α1 as described in the Experimental Procedures section.
(§2) Quantitative RT-PCR: The cells were seeded in 6-cm dishes and serum-starved for 24 h after the confluence reached 90%. […] Total RNA was extracted using TRIzol and subjected to quantitative RT-PCR analysis. The assays were performed on the AB 7500 real time PCR system with the following protocol: 1 cycle (6 min at 95° C.), 40 cycles (30 s at 95° C., 30 s at 52° C., 30 s at 72° C., and 1 min at 85° C.), followed by a dissociation stage to ensure a single product. The reactions are in a total volume of 25 μl, including 1.25 µl of Sybr Green (Invitrogen), 0.125 µl of DNA polymerase (Denville), 2.5 µl of dNTP (Invitrogen), 10 ng of cDNA. Primer pairs were used at 5 μM concentration, and the sequences are:
(§3) The relative Na/K-ATPase al gene expression was calculated by comparative threshold (CT) method (ΔΔCT). To normalize the difference amounts of cDNA, GAPDH was used as an internal control.

A4-11 cells = test: MTT cell growth assay, Na/K-ATPase knock-down A4-11 cells; type: cell-based, pig; details: ouabain, 16 h
Protocol: (§4) MTT assay for measuring cell proliferation: Cells were sub-cultured in 96 well plates at 10,000 cells/well in 100 μl culture medium. […] Ten μl MTT reagent (3-4,5-dimethylthiazol-2-yl)-2,5-diphenyltetrazolium bromide) was added to each well for 90 min. The formazan crystal was dissolved with detergent and the OD value was measured at 570 nm.

Na/K-ATPase α1 mRNA [4] = test: Na/K-ATPase α1 mRNA by RT-PCR, LLC-PK1 cells; type: cell-based, pig; details: 10 nM ouabain, 24 h
Protocol: as §1, §2, §3

Na/K-ATPase α1 [5] = molecular target: T1, Na/K-ATPase α1; test: Na/K-ATPase α1 endocytosis by confocal immunostaining, BT20 cells; type: cell-based; design: endogenous in cells; host or cells: BT20; details: 10 nM ouabain
Protocol: (§5) Na/K-ATPase al was immunostained and visualized using Leica confocal microscope. The red arrows indicate the endocytosed vesicles containing Na/K-ATPase α1.
(§6) The cells were fixed with ice-cold methanol for 15 min and blocked with Signal Enhancer from Invitrogen. Monoclonal anti-Na/K-ATPase α1 antibody was then incubated with the cells overnight at 4° C. After 3 washes, a secondary Alexa 488-conjugated anti-mouse antibody was added and incubated for 2 h at room temperature. The coverslip was washed, mounted and imaged using a Leica confocal microscope.

[6] = molecular target: T3, Na/K-ATPase in the plasma membrane (Sus scrofa, UniProt P05024); test: 3H-ouabain binding after ouabain pre-treatment, LLC-PK1 cells; type: cell-based, pig; details: ouabain up to 10 nM, 72 h
T3 construct: endogenous in cells; host or cells: LLC-PK1 (intact cells)
Protocol: The cells were washed and 3H-ouabain were performed as described herein. * p<0.05, ** p<0.01
To assess the functional consequence of these changes in α1 expression, the inventors measured the number of functional Na/K-ATPase in the plasma membrane.
Afterwards, cells were washed with serum-free medium and subjected to 3H-ouabain binding assay. Briefly, cells were incubated in K+-free Kreb's solution (NaCl 137 mM; KCl 0 mM; CaCl2 2.8 mM; NaH2PO4 0.6 mM; MgSO4 1.2 mM; dextrose; 10 mM; Tris 15 mM; pH7.4) for 15 min, and then exposed to 100 nM 3H-ouabain for 30 min at 37° C. At the end of incubation, the cells were washed 3 times with ice-cold K+-free Kreb's solution, solubilized in 0.1M NaOH-0.2% SDS, and counted in a scintillation counter for 3H-ouabain. […] Paralleled plates were used for counting cell numbers. 3H-ouabain binding data were calculated as binding sites per cell.

Na/K-ATPase α1 [7] = molecular target: T2, Na/K-ATPase α1; test: Na/K-ATPase α1 expression by Western blot, LLC-PK1 cells; type: cell-based, pig
Protocol: FIG. 7A: LLC-PK1 cells were pre-treated with 10 nM rapamycin or 50 μM LY294002 for 30 min. […] The cell lysates were analyzed for Na/K-ATPase α1 using Western blot.

Na/K-ATPase α1 mRNA [8] = test: Na/K-ATPase α1 mRNA by RT-PCR, BT20 cells; type: cell-based, human; details: 10 nM ouabain, 24 h
Protocol: as §1, §2, §3

C2-9 cells = test: MTT cell growth assay, caveolin-1 knock-down C2-9 cells; type: cell-based, pig; details: C2-9 caveolin-1 knockdown cells
Protocol: as §4

Na/K-ATPase α1 [9] = molecular target: T1, Na/K-ATPase α1; test: Na/K-ATPase α1 expression by Western blot, BT20 cells; type: cell-based; design: endogenous in cells; host or cells: BT20, DU145, MDA-MB-435s
Na/K-ATPase α1 [10] = molecular target: T1, Na/K-ATPase α1; test: Na/K-ATPase α1 endocytosis by confocal immunostaining, DU145 cells; type: cell-based; design: endogenous in cells; host or cells: DU145; details: 10 nM ouabain
Protocol: as §5, §6

BT20 cells = test: Cell growth curve (cell counting), BT20 cells; type: cell-based, human
Protocol: FIG. 1B: The above three cell lines were subcultured in 12-well plates (50,000 cells/well) and serum starved.
Cell growth curve and cell cycle measurement: Cells were sub-cultured in 12 well plates at 50,000/well in 1 ml culture medium for 24 h. […] At each indicated time point, three wells of control or treated cells were trypsinized and counted. For cell cycle measurement, cells were trypsinized and re-suspended in Citrate buffer (8.55% sucrose, 1.18% Na citrated, 5% DMSO, pH 7.6), and stained with propidium iodide (PI). The stained cells were then analyzed by Flow Cytometry.

Q: Which results are given for `C[C@@H]1O[C@@H](O[C@H]2C[C@@H](O)[C@]3(CO)[C@H]4[C@H](O)C[C@]5(C)[C@@H](C6=CC(=O)OC6)CC[C@]5(O)[C@@H]4CC[C@]3(O)C2)[C@H](O)[C@H](O)[C@H]1O` [ouabain]?
A: Akt phosphorylation (Akt): stimulated Akt phosphorylation; Na/K-ATPase α1 expression (Na/K-ATPase α1 [1]): 82±2 % of control; ouabain-induced increases in α1 expression (Na/K-ATPase α1 [2]): completely abolished ouabain-induced increases in α1 expression; levels of α1 mRNA (Na/K-ATPase α1 mRNA [3]): no effect on levels of α1 mRNA; growth stimulation (MTT) (A4-11 cells): No growth stimulation was detected; levels of α1 mRNA (Na/K-ATPase α1 mRNA [4]): no effect on levels of α1 mRNA; endocytosis of Na/K-ATPase α1 (α1-positive vesicles) (Na/K-ATPase α1 [5]): many al-positive vesicles were accumulated; number of 3H-ouabain binding sites (functional plasma membrane Na/K-ATPase) [6]: barely changed the number of binding sites; α1 expression with ouabain in the presence of rapamycin (Na/K-ATPase α1 [7]; 10 nM rapamycin pre-treatment, 10 nM ouabain 24 h): further decrease in the expression of al; also recorded: further decrease in the expression of a1; Na/K-ATPase α1 expression (Na/K-ATPase α1 [7]; ouabain 24 h or 72 h exposure): induction of α1 expression; levels of α1 mRNA (Na/K-ATPase α1 mRNA [8]): no effect on levels of α1 mRNA; ouabain-induced cell growth response (MTT) (C2-9 cells): abolished ouabain-induced cell growth stimulation; cellular amount of Na/K-ATPase α1 (Na/K-ATPase α1 [9]; BT20 cells, ouabain 24 h or 72 h exposure): reduced the cellular amount of α1; Na/K-ATPase α1 expression, 72 h versus 24 h (Na/K-ATPase α1 [9]; BT-20 cells, after 72 h of ouabain exposure): further reduction in al expression; endocytosis of Na/K-ATPase α1 (α1-positive vesicles) (Na/K-ATPase α1 [10]): many al-positive vesicles were accumulated; block of cell growth (cell counting) (BT20 cells; 50 nM ouabain): completely block the growth; cell number as a function of time (BT20 cells; 10 and 50 nM ouabain): significantly reduced the number of BT20 cells
